Results: patent US7250489B2, “Purified linear polypeptide epitope from walnuts and associated methods” (priority 2001, dated 2007)
No end group written: not given here.

Legend:
Set-up in all cases: species or system human
[1] = test system: IgE of walnut-allergic patients' sera; experiment: IgE binding to solid phase synthetic peptides (SPOTs analysis); settings: for number of patients' sera positive for the peptide: 20 individual patients' sera
Source text: The study was approved by the Human Subjects Review Committee at the University of California, Davis. Sera from 20 walnut-allergic patients with a convincing history of life-threatening systemic allergic reactions to walnuts, positive ImmunoCAP assays (Pharmacia, Inc., Diagnostics, Columbus, Ohio), and evidence of IgE against rJug r 1 (see below) were used in this study. Control sera were obtained from atopic patients with no history of walnut sensitivity, and one patient with life-threatening reactions to walnuts, positive ImmunoCAP assay, positive serum IgE immunoblot to walnut proteins, but negative for binding to the 2S albumin.
Based on the published amino acid sequence of Jug r 1 and our unpublished data determining the subunit cleavage sites,^6 twenty-five 13-amino acid peptides, offset by three amino acids, were synthesized which corresponded to the entire 64-amino acid length of the large subunit (FIG. 1A) and 26-amino acid length of the small subunit (FIG. 1B). Additional peptides bearing the target epitope (QGLRGEEMEEMV), SEQ ID NO:1, mutated forms of this peptide, and a non-IgE binding peptide (LSQRGLQSSSV), SEQ ID NO:6, were also synthesized. […] versions of the target peptide were created via a single site alanine substitution at each position along the amino acid sequence, and six mutated peptides were synthesized using multiple alanine substitutions, as shown in FIG. 6.
Peptides were synthesized on derivatized cellulose sheets using 9-fluorenlymethoxy carbonyl-derived (Fmoc) amino acids as described by the manufacturer (Genosys Biotechnologies, Inc., The Woodlands, Tex.). Briefly, cellulose membranes containing free hydroxy groups were esterfied with an Fmoc-amino acid dissolved in 1-methyl-2 pyrrolidione. The coupling reaction was followed by washing in N,N-dimethylformamide (DMF) and the amino acids were acetylated with acetic anhydride. The membranes were deprotected by washing in DMF and incubation with a solution of 20% piperidine in DMF followed by another wash in DMF. Coupling, acetylation, and deprotection steps were repeated for each cycle. During the final cycle, a mixture of dichloromethane, trifluoroacetic acid, and triisobutylsilane (1:1:0.05) was used to deprotect the acid-labile amino acid side chains.
(§1) The peptide-containing membranes were washed in TBS and incubated o/n at RT in blocking solution as directed by the manufacturer (Genosys Biotechnologies, Inc., The Woodlands, Tex.). Membranes were then washed in TBS-T for 10 min and incubated o/n at 4° C. with individual patient's serum or pooled patients' sera diluted 1:5 in blocking buffer (total sera:blocking buffer). This incubation was followed by three 5-min washes in TBS-T and an o/n (4° C.) incubation with ^125I-anti-human IgE (Hycor Biomedical Inc., Garden Grove, Calif.) diluted 1:10 in a mixture of PBS, 5% nonfat dry milk, and 0.05% Tween-20. Three final 10 min washes in PBS/0.05% Tween-20 were performed and IgE-peptide reactivity identified after a 48 hr exposure at −70° C. to Kodak Biomax x-ray film.

[2] = test system: E1-specific IgE of patients' sera; experiment: Inhibition by soluble epitope peptide of IgE binding to solid-phase E1 peptide
Method: as §1
A soluble form of an identified IgE-reactive peptide is (QGLRGEEMEEMV) was synthesized by Fmoc protocols on an automated peptide synthesizer (Model 433A, Applied Biosystems, Foster City, Calif.).
(§2) To test the specificity and reactivity of the epitope-specific IgE, control, pooled and fractionated patients' sera were pre-incubated o/n at 4° C. with different amounts (70, 7.0, and 0.7 μg) of the soluble epitope peptide, or a soluble non-specific peptide. […] Detection of IgE binding to the solid-phase synthetic peptides and dot-blotted rJug r 1 was detected using ^125I-anti-human IgE and ECL+, respectively, as described earlier.

[3] = test system: patient serum IgE binding to rJug r 1; experiment: Inhibition by soluble epitope peptide of IgE binding to dot-blotted rJug r 1
Method: For dot-blot assays, a graphite pencil was used to circumscribe 4 mm×8 mm elipses on a dry 0.4 μm NC membrane (Shleicher & Schuell; Keen, N.H.). The NC was incubated in distilled-deionized water (ddH2O) on a rocking table for 5 min and allowed to air dry before each dot was loaded with 0.11 μg of rJug r 1 in 2 μl of ddH2O. The antigen-loaded NC was then rinsed in ddH2O as described above, placed protein side up on 3MM paper (Whatman Intl. Ltd., Maidstone, England), and dried under a 60-watt light until all moisture was removed. […]
as §2

[4] = of the 20 patients tested, FIG. 4

Row | Sequence | number of patients' sera positive for the peptide [1] | number of patients exhibiting moderate recognition of the epitope peptide [1, 4] | number of patients exhibiting strong recognition of the epitope peptide [1, 4] | number of patients exhibiting weak recognition of the epitope peptide [1, 4] | number of patients showing no recognition of the epitope peptide [1, 4] | inhibition of binding of E1-specific IgE to the solid phase epitope ([2]; 70 μg soluble peptide) | inhibition of IgE binding to solid-phase E1 peptide ([2]; 70, 7.0, 0.7 μg peptide pre-incubated with whole patients' sera, FIG. 5C) | inhibition of IgE binding to rJug r 1, eluate (E1 epitope-specific) IgE fractions ([3]; 70 μg soluble peptide, affinity column purified IgE fractions) | inhibition of binding of IgE to the intact rJug r 1 ([3]; patients' IgE, soluble peptide)
1 | QGLRGEEMEEMV (not fully specified; listed as Juglans regia) [E1, solid-phase and soluble forms] | 15 | six | five | four | five | completely inhibit | Partial to complete inhibition | Inhibition was again observed | did not completely inhibit
2 | LSQRSQQQCRQ [(−) peptide, reference compound] | none |  |  |  |  |  |  |  | 
